Laboratory results as given in patent US4833138A, “Phenothiazinealkaneamines for treatment of neurotoxic injury” (priority 1987, dated 1989).
Structures can show the parent of a compound that is named as a salt.

Experiments:
[1] = test system: KA neurotoxicity in chick embryo retina; experiment: NMDA/KA Antagonist Assay, chick embryo retina, KA (25 μM) neurotoxicity; type: cell-based; conditions: 15-day old chick embryo retina, 30 min at 37° C.
Description: (§1) Two agonists were employed in the present test, each at a concentration established previously to be the lowest concentration required to consistently cause a fully-developed retinal lesion: KA (25 μM) and NMA (200 μM). […] Internal controls in each experiment consisted of at least six specimens being incubated with agonist alone. […] The method of tissue preparation was as follows: 15-day old chick embryos were decapitated and their eyes removed and cut into quadrants after excising the cornea and removing the lens, vitreous and iris. The retinal quadrants were then gently separated from the pigment epithelium and incubated for 30 min. at 37° C. in BSS to which an agonist or agonist plus antagonist was added. The BSS contained 140 mM Na^+, 5.0 mM K^+, 0.5 mM Ca^++, 4 5mM Mg^++, 150 mM Cl^-, 5.6 mM glucose and bicarbonate/phosphate buffer (pH 7.3). After incubation for 30 min., the retinal quadrants were fixed by immersion in phosphatebuffered solution containing 1.5% glutaraldehyde and 1% paraformaldehyde, then additionally fixed in 1% osmium tetroxide, dehydrated in graded ethanols, cleared in toluene and embedded in araldite. Sections were cut 1 μM thick on a Sorval ultratome and stained with Methylene blue/Azure 11 for histopathological evaluation by light microscopy.

[2] = test system: NMA neurotoxicity in chick embryo retina; experiment: NMDA/KA Antagonist Assay, chick embryo retina, NMA (200 μM) neurotoxicity; type: cell-based; conditions: 15-day old chick embryo retina, 30 min at 37° C., n>6
Description: as §1

[3] = test system: N-Methylaspartate excitation of spinal neurones; conditions: Berry et al, Eur. J. Pharm. 1983; binding and behavioral data; cited from earlier work
[4] = test system: [^3 H]PCP binding sites, rat cerebral cortical membranes; conditions: Goldman et al, FEBS Lett. 1985; cited from earlier work
chick embryo retina [5] = experiment: Acute excitotoxic lesion of chick embryo retina by agonist alone; conditions: 1 mM Glu, 30 min in BSS
Description: as §1

[6] = test system: N-methyl-D-aspartate receptor; conditions: Wong et al, PNAS 1986; cited from earlier work
chick embryo retina [7] = conditions: chicken, 30 min
Description: as §1

[8] = test system: NMDA receptor (N-Methyl-Aspartate excitation of central mammalian neurones); conditions: Anis et al, Br. J. Pharmacol. 1983; cited from earlier work
NMA neurotoxicity = conditions: Olney et al, Neuroscience Letters 1986 for PCP and ketamine; competitive NMA antagonist statement without reference; cited from earlier work

## 10-[2-(diethylamino)ethyl]phenothiazine [ethopropazine]
[1]
  blocking of KA toxicity: not observed
[2]
  concentration providing total protection against toxicity of NMA: 25.0 µM

## CC1CCCN(C2(c3ccccc3)CCCCC2)C1 (single isomer, unassigned; (+)) [(+)-PCMP, (+)-1-(1-phenylcyclohexyl)-3-methylpiperidine]
[3]
  stereoselective effect over isomer counterpart in reducing the excitatory action of NMDA: stereoselective effects
[4]
  inhibition of the specific binding of [^3 H]PCP: potent inhibitor

## N[C@@H](CCC(=O)O)C(=O)O [Glu, Glutamate]
Chick embryo retina [5]
  retinal lesion: full lesion

## C[C@]12N[C@H](Cc3ccccc31)c1ccccc12 [MK-801, (+)-5-methyl-10,11-dihydro-5H-dibenzo[a,d]cyclohepten-5,10-imine maleate)]
[6]
  antagonism of the N-methyl-D-aspartate receptor site: potent, selective non-competitive antagonist

## CN[C@H](CC(=O)O)C(=O)O [NMA, N-methyl-D-aspartate]
Chick embryo retina [7]
  lowest concentration required to consistently cause a fully-developed retinal lesion: 200 µM

## c1ccc(C2(N3CCCCC3)CCCCC2)cc1 [PCP]
[8]
  reduction of excitatory effects of NMDA as compared to KA and QUIS: reduce selectively the excitatory effects of NMDA as compared to KA and QUIS
NMA neurotoxicity
  blocking of NMA neurotoxicity: Blocking of NMA neurotoxicity

## CC1CCC(c2ccccc2)(N2CCCCC2)CC1 (stereo not drawn) [cis-N-(1-phenyl-4-methylcyclohexyl)piperidine]
[3]
  stereoselective effect over isomer counterpart in reducing the excitatory action of NMDA: stereoselective effects

## CNC1(c2ccccc2Cl)CCCCC1=O (stereo not drawn) [ketamine]
[8]
  reduction of excitatory effects of NMDA as compared to KA and QUIS: reduce selectively the excitatory effects of NMDA as compared to KA and QUIS
NMA neurotoxicity
  blocking of NMA neurotoxicity: Blocking of NMA neurotoxicity
